According to paper doi:10.1101/2025.10.22.684062 (bioRxiv, 2025):
Peptide text beside a SMILES is read from it.

Tests used:
[1] = system: Vemurafenib-sensitive A375 cell line; assay: Cell viability assay, Vemurafenib-sensitive (parental) A375 cells; format: cell-based; details: Homo sapiens, A-375
Experimental: (§1) Viability was determined using the CCK-8 reagent (APExBIO). Absorbance was measured at 450 nm using a Varioskan LUX reader.
(§2) Vemurafenib-resistant A375 cells were generated following established protocol. Parental cells were treated with 100 nM Vemurafenib for 2 weeks, followed by stepwise doubling of drug concentration every 2 weeks up to 3.2 μM. Surviving cells in maintenance culture containing 2 μM drug was used for downstream studies.

[2] = system: Vemurafenib-resistant A375 cell line; assay: Cell viability assay, Vemurafenib-resistant A375 cells; format: cell-based, human
Experimental: as §1, §2

[3] = In vivo plasma pharmacokinetics; details: ip, male C57BL/6 mouse, 5mg/kg intraperitoneal, LC-MS/MS
Experimental: Blood samples (100 μl) were obtained at 0, 0.25, 0.5, 1, 2, 4, 8, and 24 hours via tail vein bleeds.

B16-F10 melanoma tumors = assay: B16-F10 syngeneic mouse tumor model; format: in vivo, C57BL/6 mice; details: CST 10 mg/kg i.p. three times per week, tumor-bearing mice, n=9
Experimental: Age-matched male and female C57BL/6 mice (7–9 weeks, n = 9) were subcutaneously injected with 5 × 10^4 B16-F10 cells in 100 μL PBS. […] Tumor dimensions were measured with calipers, and volume was calculated using the formula V = (length × width^2)/2. Mice were euthanized 22 days post-inoculation. All procedures were approved by the IACUC of UCSD and the VA San Diego Healthcare System and conformed to NIH guidelines.
Tumors were fixed, paraffin-embedded, and sectioned (5 μm). Hematoxylin and eosin staining was performed at the La Jolla Institute for Immunology. Immunohistochemistry was carried out using the Super Sensitive™ M Polymer-HRP Kit (Biogenex). After deparaffinization, antigen retrieval was performed using Histo VT (Nacalai) at 90°C for 20 min. Sections were incubated overnight at 4°C with anti–Ki-67 (Abcam) or anti-CST (gift from Angelo Corti) at 1:100 dilution. Detection was performed with DAB and counterstained with hematoxylin. Slides were dehydrated and mounted in DPX. […]
Apoptotic nuclei were detected in tumor sections using the CF®594 TUNEL Assay Kit (Biotium). […] Fluorescence images were obtained using a Keyence microscope.
Tumor lysates were prepared in RIPA buffer containing protease inhibitors (Thermo Fisher). […] HRP-conjugated secondary antibodies (Cell Signaling Technology) were used, and signals were detected by chemiluminescence. […]

Row | IC50 ([2]; Homo sapiens, vemurafenib-resistant A-375, Vemurafenib-resistant A375 cells) [nM] | SMILES | IC50 [1] [nM] | fold increase of IC50, resistant versus parental A375 cells ([2]; resistant vs parental A375) [fold] | half-life ([3]; read-out: t1/2 (half-life) (converted)) [h] | Cmax ([3]; tail vein bleeds 0-24 hours, read-out: Cmax (maximum concentration)) [ng/mL] | body weight and liver histology (B16-F10 melanoma tumors)
1 | 1430 | CCCS(=O)(=O)Nc1ccc(F)c(C(=O)c2c[nH]c3ncc(-c4ccc(Cl)cc4)cc23)c1F [Vemurafenib] | 229 | > 6 |  |  | 
2 |  | CSCC[C@H](NC(=O)[C@H](CO)NC(=O)[C@@H](N)CO)C(=O)N[C@@H](CCCCN)C(=O)N[C@@H](CC(C)C)C(=O)N[C@@H](CO)C(=O)N[C@@H](Cc1ccccc1)C(=O)N[C@@H](CCCNC(=N)N)C(=O)N[C@@H](C)C(=O)N[C@@H](CCCNC(=N)N)C(=O)N[C@@H](C)C(=O)N[C@@H](Cc1ccc(O)cc1)C(=O)NCC(=O)N[C@@H](Cc1ccccc1)C(=O)N[C@@H](CCCNC(=N)N)C(=O)NCC(=O)N1CCC[C@H]1C(=O)NCC(=O)N1CCC[C@H]1C(=O)N[C@@H](CCC(N)=O)C(=O)N[C@@H](CC(C)C)C(=O)O [CST, Catestatin] (H-SSMKLSFRARAYGFRGPGPQL-OH) |  |  | 1.38 | 148 | No major changes in body weight or liver histology
